Legend:
[1] = test system: caspase-3 and PARP cleavage; assay: Western blot of caspase 3, cleaved caspase 3 and cleaved PARP; type: cell-based, murine; conditions: 4 and 10 μM, 24 h
[2] = Measurement of CFZ in tissues; type: in vivo, mice
Protocol: Mice (4 week old, male C57Bl6) were purchased from the Jackson Laboratory (Bar Harbor, Me.) and acclimatized for 1 week in a specific-pathogen-free animal facility. Animal care was provided by the University of Michigan's Unit for Laboratory Animal Medicine (ULAM), and the experimental protocol was approved by the Committee on Use and Care of Animals. Clofazimine (CFZ) (C8895; Sigma-Aldrich, St. Louis, Mo.) was dissolved in sesame oil (Roland, China, or Shirakiku, Japan) to achieve a concentration of 3 mg/ml, which was mixed with Powdered Lab Diet 5001 (PMI International, Inc., St. Louis, Mo.) to produce a 0.03% drug to powdered feed (Baik et al., 2013, supra). […]
CFZ mass was measured as previously reported (Baik et al., 2012, supra; Venkatesan, et al., Arzneim. Forsch. 2007, 57, 472-474). […] CFZ mass was spectrophotometrically determined in methanol (λ=490 nm) and the concentration was calculated using a standard curve generated by spiking extracted tissue of the control (vehicle-only treated) mice tissue with known amounts of drug. The tissue-to-fat partition ratios were computed based on mass of drug in the various tissues relative to mass of drug in total body fat (units: dimensionless; calculated as [mg CFZ/g tissue]/[mg CFZ/g fat]). […] CFZ mass was measured in relation to the measured weight of the tissue or plasma volume.

Akt = assay: Western blot of Akt phosphorylated at Ser473; type: cell-based, murine; conditions: RAW 264.7 cells, 24 h
Protocol: The murine macrophage cell line RAW 264.7 was purchased from ATCC (Manassas, Va.) and maintained in DMEM (Life Technologies, Carlsbad, Calif.) supplemented with 10% FBS. Soluble CFZ or isolated CLDIs were added at various concentrations in DMEM with 5% FBS to 6-well plates containing 4×10^5 cells/well and incubated (24 h at 37° C. and 5% CO2). Culture supernatants were harvested at 24 h, centrifuged (1500×g for 5 min), and stored (−20° C.) in frozen aliquots prior to analysis. For experiments involving TLR stimulation, cells were washed twice with pre-warmed DPBS to remove extracellular, non-phagocytosed CLDIs or CFZ, and then the cells were serum-starved for 18 h in DMEM. Supernatants were collected from unstimulated cells and cells stimulated with 200 ng/ml Pam3 or 1 μg/ml LPS in DMEM.

[3] = test system: alveolar macrophages (CD11c) and neutrophils (Ly6G); assay: Flow cytometry of alveolar exudate of drug fed mice; type: in vivo; conditions: 8 weeks
Text: Mice (4 week old, male C57Bl6) were purchased from the Jackson Laboratory (Bar Harbor, Me.) and acclimatized for 1 week in a specific-pathogen-free animal facility. Animal care was provided by the University of Michigan's Unit for Laboratory Animal Medicine (ULAM) and the experimental protocol was approved by the Committee on Use and Care of Animals in accordance with NIH guidelines. An oral diet containing CFZ was fed to mice as previously described (Baik J, et al., Antimicrob. Agents Chemother. 2013; 57:1218-30; Baik J, et al., PLoS One 2012; 7:e47494; Keswani R K, et al., Mol. Pharm. 2015:10). […]
Mice were euthanized as described above and the trachea was surgically exposed and cannulated with an 18G luer stub and the lungs were lavaged to obtain alveolar exudate by instilling calcium- and magnesium-free Dulbecco's PBS (DPBS) containing 0.5 mM EDTA in 1-ml aliquots for a total of 6 ml. […] Viable (using Trypan Blue staining method) and CLDI containing cells were counted using a hemocytometer.
Peritoneal and alveolar lavage was performed as stated before to obtain the respective exudates. […] For CLDI fluorescence signal experiments, cells were pelleted by centrifugation (100×g for 5 min) followed by resuspension in PBS+5% FBS (500 μl). […] These cells also had extremely high side-scatter that were measured as saturated signals. […]

**Q.** Which PARP cleavage [1] does the source give for `CC(C)/N=c1\cc2n(-c3ccc(Cl)cc3)c3ccccc3nc-2cc1Nc1ccc(Cl)cc1` [CFZ, 3-(p-chloroanilino)-10-(p-chlorophenyl)-2, 10-dihydro-2-isopropyliminophenazine] here?
**A.** increased PARP cleavage

**Q.** What about the “CFZ mass retained in spleen” value ([2]; after the eight week washout period) of the same compound?
**A.** exceeded its combined mass retained in the other organs

**Q.** And the Kp ([2]; male, C57Bl6, mouse, adipose tissue / serum, 10 mg/kg per day, starting at three weeks of oral administration, read-out: CFZ concentration in adipose tissue relative to serum)?
**A.** > 10000

**Q.** And the “phosphorylation of Akt” value (Akt)?
**A.** minimally affected phosphorylation of Akt

**Q.** And the “% of CLDI(+) cells that are CD11c(+)” value [3]?
**A.** > 99%

**Q.** And the “% of Ly6G(+) cells detected as CLDI+” value [3]?
**A.** < 2%
